Assay [1] deals with Melanocortin receptor 3 (Mus musculus) (UniProt P33033). In words: Agonistic activity against mouse MC3R at […]. Format: functional.
For assay [2], the target named is Melanocyte-stimulating hormone receptor (Mus musculus, UniProt Q01727). As to the kind of experiment: Agonistic activity against mouse MC1R. Format: functional.
The next assay has as its target Melanocortin receptor 4 (Mus musculus, UniProt P56450). In words: Agonistic activity against mouse MC4R. The class given is functional.
The next assay concerns the target Melanocortin receptor 5 (Mus musculus, UniProt P41149). As to the kind of experiment: Agonistic activity against mouse MC5R. Format: functional.
Assay [3] deals with Melanocortin receptor 5 (Mus musculus) (UniProt P41149). As to the kind of experiment: Agonistic activity against mouse MC5R at […]. Format: functional.
The target in assay [4] is Melanocortin receptor 4 (Mus musculus) (UniProt P56450). In words: Agonistic activity against mouse MC4R at […]. Format: functional.
For assay [5], the species on record is Mus musculus. In words: Selectivity index, ratio of EC50 for mouse MCR4R to EC50 for mouse MC1R.
For assay [6], the species on record is Mus musculus. As to the kind of experiment: Selectivity index, ratio of EC50 for mouse MCR5R to EC50 for mouse MC1R.

Calls of active or inactive are those of the source. No cut-off for these calls is given here.

What is called EC50 is the midpoint of the concentration-response curve.

Melanocortin receptor 4 (Mus musculus), sequence (P56450 whole entry): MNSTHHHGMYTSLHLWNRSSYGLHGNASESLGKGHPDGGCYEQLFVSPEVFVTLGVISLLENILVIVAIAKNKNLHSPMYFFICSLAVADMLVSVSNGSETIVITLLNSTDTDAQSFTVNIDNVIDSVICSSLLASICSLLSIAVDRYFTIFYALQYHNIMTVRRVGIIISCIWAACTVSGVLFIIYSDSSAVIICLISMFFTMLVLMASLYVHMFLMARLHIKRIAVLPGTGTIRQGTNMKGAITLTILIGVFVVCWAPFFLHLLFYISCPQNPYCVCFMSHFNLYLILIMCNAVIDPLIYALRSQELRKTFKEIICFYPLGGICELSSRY
Melanocortin receptor 3 (Mus musculus), sequence (P33033 whole entry): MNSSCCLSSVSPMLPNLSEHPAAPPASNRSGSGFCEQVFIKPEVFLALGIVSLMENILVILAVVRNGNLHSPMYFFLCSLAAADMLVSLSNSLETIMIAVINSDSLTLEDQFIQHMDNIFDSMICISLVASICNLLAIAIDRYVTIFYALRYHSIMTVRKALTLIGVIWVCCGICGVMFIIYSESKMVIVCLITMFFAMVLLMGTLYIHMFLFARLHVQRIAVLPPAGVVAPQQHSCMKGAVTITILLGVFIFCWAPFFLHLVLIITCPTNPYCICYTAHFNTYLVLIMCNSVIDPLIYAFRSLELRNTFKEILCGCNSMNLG
Melanocortin receptor 5 (Mus musculus), sequence (P41149 whole entry): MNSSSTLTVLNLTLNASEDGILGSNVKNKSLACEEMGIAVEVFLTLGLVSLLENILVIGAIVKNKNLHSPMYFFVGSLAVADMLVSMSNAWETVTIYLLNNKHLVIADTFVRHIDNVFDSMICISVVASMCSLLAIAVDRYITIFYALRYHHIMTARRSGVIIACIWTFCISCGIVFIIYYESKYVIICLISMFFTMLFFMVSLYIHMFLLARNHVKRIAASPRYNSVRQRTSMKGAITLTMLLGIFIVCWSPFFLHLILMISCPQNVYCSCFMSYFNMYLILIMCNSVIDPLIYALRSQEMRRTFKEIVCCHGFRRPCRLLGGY
Melanocortin receptor 5, sequence (P41149 whole entry): as above
Melanocortin receptor 4, sequence (P56450 whole entry): as the sequence (P56450 whole entry) above
Melanocyte-stimulating hormone receptor, sequence (Q01727 whole entry): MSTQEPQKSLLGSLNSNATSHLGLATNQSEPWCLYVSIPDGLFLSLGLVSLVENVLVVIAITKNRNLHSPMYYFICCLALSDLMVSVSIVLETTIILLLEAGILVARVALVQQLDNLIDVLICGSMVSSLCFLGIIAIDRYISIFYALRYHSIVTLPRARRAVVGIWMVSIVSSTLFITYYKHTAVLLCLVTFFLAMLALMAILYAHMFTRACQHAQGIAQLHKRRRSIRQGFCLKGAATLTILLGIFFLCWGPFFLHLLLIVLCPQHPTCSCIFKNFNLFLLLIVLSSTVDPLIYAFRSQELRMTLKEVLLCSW

`COc1ccc(/C=C\C(=O)N[C@@H](Cc2cnc[nH]2)C(=O)N[C@H](Cc2ccccc2)C(=O)N[C@H](CCCNC(=N)N)C(N)=O)cc1`: the result in assay [1] was inactive.

On to `N=C(N)NCCC[C@@H](NC(=O)[C@@H](Cc1ccccc1)NC(=O)[C@H](Cc1cnc[nH]1)NC(=O)/C=C/c1ccc(F)cc1F)C(N)=O`, for which the outcome in assay [1] was inactive.

As to `N=C(N)NCCC[C@@H](NC(=O)[C@@H](Cc1ccccc1)NC(=O)[C@H](Cc1cnc[nH]1)NC(=O)/C=C/c1ccc2c(c1)OCO2)C(N)=O`, in assay [1], the outcome was inactive.

Regarding `N=C(N)NCCCC(NC(=O)[C@@H](Cc1ccccc1)NC(=O)[C@H](Cc1cnc[nH]1)NC(=O)CCc1cccc2c1OCO2)C(N)=O` (single isomer, unassigned), the EC50 worked out at 7.28 µM in assay [2], 25.5 µM at Melanocortin receptor 4 and 23 µM at Melanocortin receptor 5. Further, the result in assay [1] was inactive.

As to `CC(=O)N/C(=C\c1ccccc1)C(=O)N[C@@H](Cc1cnc[nH]1)C(=O)N[C@H](Cc1ccccc1)C(=O)NC(CCCNC(=N)N)C(N)=O` (single isomer, unassigned), the outcome in assay [1] and in assay [3] was inactive.

`COc1ccc(/C=C/C(=O)N[C@@H](Cc2cnc[nH]2)C(=O)N[C@H](Cc2ccccc2)C(=O)NC(CCCNC(=N)N)C(N)=O)cc1` (single isomer, unassigned): the result in assay [1] was inactive.

On to `COc1ccccc1/C=C/C(=O)N[C@@H](Cc1cnc[nH]1)C(=O)N[C@H](Cc1ccccc1)C(=O)NC(CCCNC(=N)N)C(N)=O` (single isomer, unassigned), for which, in assay [1], the result was inactive.

In the case of `N#C/C(=C\c1ccc(O)cc1)C(=O)N[C@@H](Cc1cnc[nH]1)C(=O)N[C@H](Cc1ccccc1)C(=O)NC(CCCNC(=N)N)C(N)=O` (single isomer, unassigned), in assay [1], the result was inactive.

As for `N=C(N)NCCCC(NC(=O)[C@@H](Cc1ccccc1)NC(=O)[C@H](Cc1cnc[nH]1)NC(=O)/C(F)=C/c1ccccc1)C(N)=O` (single isomer, unassigned), the result in assay [1] was inactive.

With `N=C(N)NCCCC(NC(=O)[C@@H](Cc1ccccc1)NC(=O)[C@H](Cc1cnc[nH]1)NC(=O)/C=C/c1ccc([N+](=O)[O-])cc1)C(N)=O` (single isomer, unassigned), the result in assay [1] and in assay [4] was inactive.

For `N=C(N)NCCCC(NC(=O)[C@@H](Cc1ccccc1)NC(=O)[C@H](Cc1cnc[nH]1)NC(=O)/C=C/c1cccc(O)c1)C(N)=O` (single isomer, unassigned), the result in assay [1] was inactive.

On to `N=C(N)NCCCC(NC(=O)[C@@H](Cc1ccccc1)NC(=O)[C@H](Cc1cnc[nH]1)NC(=O)/C=C/c1ccccc1)C(N)=O` (single isomer, unassigned), for which the Selectivity Index in the assay filed under Mus musculus [5] is 44; in the assay listed under Mus musculus [6], 25. Further, the result in assay [1] was inactive.

In the case of `N=C(N)NCCCC(NC(=O)[C@@H](Cc1ccccc1)NC(=O)[C@H](Cc1cnc[nH]1)NC(=O)CCC(=O)c1ccc(F)cc1)C(N)=O` (single isomer, unassigned), the outcome in assay [1] was inactive.

As to `N=C(N)NCCCC(NC(=O)[C@@H](Cc1ccccc1)NC(=O)[C@H](Cc1cnc[nH]1)NC(=O)CCC(=O)c1ccccc1)C(N)=O` (single isomer, unassigned), the result in assay [1] was inactive.

Consider `N=C(N)NCCCC(NC(=O)[C@@H](Cc1ccccc1)NC(=O)[C@H](Cc1cnc[nH]1)NC(=O)CCCCc1ccc2c(c1)OCO2)C(N)=O` (single isomer, unassigned), for which the result in assay [4] and in assay [3] was inactive.

As for `N=C(N)NCCCC(NC(=O)[C@@H](Cc1ccccc1)NC(=O)[C@H](Cc1cnc[nH]1)NC(=O)CCc1c[nH]cn1)C(N)=O` (single isomer, unassigned), the result in assay [1] was inactive.

For `N=C(N)NCCCC(NC(=O)[C@@H](Cc1ccccc1)NC(=O)[C@H](Cc1cnc[nH]1)NC(=O)CCc1ccc(O)cc1)C(N)=O` (single isomer, unassigned), the outcome in assay [1] and in assay [4] was inactive.

As for `N=C(N)NCCCC(NC(=O)[C@@H](Cc1ccccc1)NC(=O)[C@H](Cc1cnc[nH]1)NC(=O)CCc1cccc(O)c1)C(N)=O` (single isomer, unassigned), the result in assay [1] and in assay [4] was inactive.

As to `N=C(N)NCCCC(NC(=O)[C@@H](Cc1ccccc1)NC(=O)[C@H](Cc1cnc[nH]1)NC(=O)CCc1cccnc1)C(N)=O` (single isomer, unassigned), the result in assay [1] and in assay [4] was inactive.

Take `N=C(N)NCCCC(NC(=O)[C@@H](Cc1ccccc1)NC(=O)[C@H](Cc1cnc[nH]1)NC(=O)c1ccc2c(c1)OCO2)C(N)=O` (single isomer, unassigned): in assay [1], the outcome was inactive.

Take `N=C(N)NCCCC(NC(=O)[C@@H](Cc1ccccc1)NC(=O)[C@H](Cc1cnc[nH]1)NC(=O)c1ccc2cc(O)ccc2c1)C(N)=O` (single isomer, unassigned): the result in assay [1] and in assay [4] was inactive.

The record behind these values is ChEMBL document CHEMBL1155320, “Semi-rigid tripeptide agonists of melanocortin receptors” (Bioorg Med Chem Lett, 2009).
